Measured values as given in patent US6376521B1, “A3 adenosine receptor antagonists” (The United States of America as represented by the …, priority 1998, dated 2002).
Read-outs that look alike come from different tables or passages of the source.

What was measured:
A1 adenosine receptors = molecular target: T1, A1 adenosine receptors (Rattus norvegicus, UniProt P25099); test: Displacement of specific [3H]R-PIA binding in rat brain membranes; settings: for Ki: [3H]R-PIA, rat brain membranes, n = 3-5, read-out: rA1 Ki ± S.E.M.; for inhibition at 100 µM: read-out: rA1 % inhibition (percentage of specific binding displaced)
T1 construct: from tissue
T1 sequence (P25099 1-326): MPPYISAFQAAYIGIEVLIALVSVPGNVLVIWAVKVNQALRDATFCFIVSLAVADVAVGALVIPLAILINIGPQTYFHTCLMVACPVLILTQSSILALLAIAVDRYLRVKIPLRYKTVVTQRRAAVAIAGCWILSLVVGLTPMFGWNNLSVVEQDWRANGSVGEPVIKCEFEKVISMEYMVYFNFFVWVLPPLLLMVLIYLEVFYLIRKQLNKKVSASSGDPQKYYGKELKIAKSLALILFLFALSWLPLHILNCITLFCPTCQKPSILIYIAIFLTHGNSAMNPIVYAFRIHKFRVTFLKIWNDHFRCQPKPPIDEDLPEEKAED

A2A adenosine receptors = molecular target: T2, A2A adenosine receptors (Rattus norvegicus, UniProt P30543); test: Displacement of specific [3H]CGS 21680 binding in rat striatal membranes; settings: for Ki: [3H]CGS 21680, rat striatal membranes, n = 3-6, read-out: rA2A Ki ± S.E.M.; for inhibition at 100 µM: read-out: rA2A % inhibition (percentage of specific binding displaced); for rA2A percentage of specific binding displaced: Table 2
T2 construct: from tissue
T2 sequence (P30543 whole entry): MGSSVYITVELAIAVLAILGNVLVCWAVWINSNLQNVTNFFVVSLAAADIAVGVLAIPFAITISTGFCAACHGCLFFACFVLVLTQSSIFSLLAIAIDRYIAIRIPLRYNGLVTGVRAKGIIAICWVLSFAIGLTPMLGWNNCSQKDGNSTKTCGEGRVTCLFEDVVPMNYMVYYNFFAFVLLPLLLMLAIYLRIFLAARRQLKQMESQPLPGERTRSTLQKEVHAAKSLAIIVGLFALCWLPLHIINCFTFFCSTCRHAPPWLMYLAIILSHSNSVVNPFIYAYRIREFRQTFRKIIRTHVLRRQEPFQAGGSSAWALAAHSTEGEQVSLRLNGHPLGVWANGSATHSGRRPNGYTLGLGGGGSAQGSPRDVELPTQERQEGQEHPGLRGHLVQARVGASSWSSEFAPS

human A3 receptors = molecular target: T3, human A3 receptors (Homo sapiens, UniProt P0DMS8); test: Displacement of specific [125I]AB-MECA binding at human A3 receptors expressed in HEK cells, in membranes; settings: for Ki: [125I]AB-MECA, HEK cell membranes, n = 3-4, read-out: hA3 Ki ± S.E.M.; for rA1/hA3: ratio of affinities rat A1 vs human A3
T3 construct: expressed in transfected cells
T3 sequence (P0DMS8 1-318): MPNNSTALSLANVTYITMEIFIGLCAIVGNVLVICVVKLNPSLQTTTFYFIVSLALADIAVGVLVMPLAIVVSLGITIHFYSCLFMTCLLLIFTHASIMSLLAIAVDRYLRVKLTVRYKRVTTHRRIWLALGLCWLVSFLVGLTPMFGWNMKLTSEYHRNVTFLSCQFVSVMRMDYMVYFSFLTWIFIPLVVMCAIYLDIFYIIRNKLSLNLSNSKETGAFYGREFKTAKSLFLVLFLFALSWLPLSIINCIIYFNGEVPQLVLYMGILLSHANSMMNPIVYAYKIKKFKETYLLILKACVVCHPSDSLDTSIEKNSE

rat A3 receptors = molecular target: T4, rat A3 receptors (Rattus norvegicus, UniProt P28647); test: Displacement of specific [125I]AB-MECA binding at rat A3 receptors stably expressed in CHO cells; settings: for rA3/hA3: ratio of affinities at rat vs. human A3 receptors; for rA1/rA3: ratio of affinities rat A1 vs rat A3
T4 construct: expressed in transfected cells
T4 sequence (P28647 1-320): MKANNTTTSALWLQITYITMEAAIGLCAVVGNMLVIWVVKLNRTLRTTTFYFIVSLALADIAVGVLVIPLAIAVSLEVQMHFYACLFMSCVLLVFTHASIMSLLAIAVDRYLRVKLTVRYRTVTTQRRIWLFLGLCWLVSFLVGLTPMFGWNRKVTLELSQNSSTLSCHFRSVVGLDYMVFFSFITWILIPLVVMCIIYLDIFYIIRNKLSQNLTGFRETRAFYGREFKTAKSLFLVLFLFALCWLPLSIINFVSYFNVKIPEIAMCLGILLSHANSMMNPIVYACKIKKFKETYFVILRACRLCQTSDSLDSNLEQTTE

[1] = Table 4, [125I]AB-MECA, CHO cells, n = 3-5, read-out: rA3 Ki

Row | Structure (SMILES) | Ki (A2A adenosine receptors; Table 2, compounds 33-58) [µM] | Ki (human A3 receptors; Table 2, compounds 33-58) [µM] | rA1/hA3 (human A3 receptors; Table 2) | Ki (rat A3 receptors; [1]) [µM] | Ki (A1 adenosine receptors; Table 2, compounds 33-58) [µM] | also measured
1 | CCSC(=O)c1c(C)nc(-c2ccccc2)c(C(=O)OCc2ccccc2)c1CC [Compound 39, 5-Benzyl 2-methyl-4-ethyl-3-(ethylsulfanylcarbonyl)-6-phenylpyridine-5-carboxylate] | 12.8 ± 2.9 | 2.61 ± 0.96 | >40 | 1.8 ± 0.32 |  | rA1 percentage of specific binding displaced (A1 adenosine receptors; Table 2, at 10^−4 M): 20 ± 8% (10^−4); rA3/hA3 (rat A3 receptors; Table 4): 0.69; rA1/rA3 (rat A3 receptors; Table 4): >50
2 | CCOC(=O)c1c(-c2cccc(Cl)c2)nc(CC)c(C(=O)SCC)c1CC [Compound 51, 5-Ethyl 2,4-diethyl-3-(ethylsulfanylcarbonyl)-6-(m-chlorophenyl)pyridine-5-carboxylate] | 8.91 ± 0.97 | 0.0134 ± 0.0015 | 610 | 0.44 ± 0.033 | 8.2 ± 2.96 | rA3/hA3 (rat A3 receptors; Table 4): 33; rA1/rA3 (rat A3 receptors; Table 4): 19
3 | CCCc1nc(-c2ccccc2)c(C(=O)OCC)c(CC)c1C(=O)SCC [Compound 55, 5-Ethyl 2-propyl-4-ethyl-3-(ethylsulfanylcarbonyl)-6-phenylpyridine-5-carboxylate] | 2.82 ± 0.82 | 0.0333 ± 0.0107 | 500 | 0.59 ± 0.04 | 16.7 ± 3 | rA3/hA3 (rat A3 receptors; Table 4): 18; rA1/rA3 (rat A3 receptors; Table 4): 28
4 | CCCSC(=O)c1c(CC)nc(-c2ccccc2)c(C(=O)OCC)c1CC [Compound 53, 5-Ethyl 2,4-diethyl-3-propylsulfanylcarbonyl-6-phenylpyridine-5-carboxylate] | 15.7 ± 4.4 | 0.0159 ± 0.0054 | 520 | 0.294 ± 0.006 | 8.22 ± 1.21 | rA3/hA3 (rat A3 receptors; Table 4): 18; rA1/rA3 (rat A3 receptors; Table 4): 28
5 | CCSC(=O)C1=C(C)NC(c2ccccc2)=C(C(=O)OCc2ccccc2)C1CC (racemic) [Compound 65, 5-Benzyl 2-methyl-4ethyl-6-phenyl-3-(ethylsulfanylcarbonyl)-1,4-(±)-dihydropyridine-5-carboxylate] |  |  |  | 2.8 ± 0.28 |  | inhibition at 100 µM (A1 adenosine receptors; Table 3, at 10^−4 M): 45 ± 2%; Ki (A2A adenosine receptors; Table 3): 14.3 ± 4.2 µM; Ki (human A3 receptors; Table 3): 1.65 ± 0.4 µM; rA1/hA3 (human A3 receptors; Table 3): >50; rA3/hA3 (rat A3 receptors; Table 4): 1.7; rA1/rA3 (rat A3 receptors; Table 4): >20
6 | CCCOC(=O)c1c(-c2cccc(Cl)c2)nc(CC)c(C(=O)SCCC)c1CC [Compound 54, 5-Propyl 2,4-diethyl-3-propylsulfanylcarbonyl-6-(m-chlorophenyl)pyridine-5-carboxylate] | 24.1 ± 7.9 |  |  |  | 41.4 ± 11.9 | Ki (rat A3 receptors): 0.814 ± 0.037 µM
7 | CCOC(=O)C1=C(C)NC(c2ccccc2)=C(C(=O)OCC)C1C(OC)OC (racemic) [Compound 66, 3,5-Diethyl 2-methyl-6-phenyl-4-(dimethoxymethyl)-1,4-(±)-dihydropyridine-3,5-dicarboxylate] |  |  |  |  |  | inhibition at 100 µM (A1 adenosine receptors; Table 3, at 10^−4 M): 32 ± 5%; rA2A displacement of specific binding (class d) (A2A adenosine receptors; Table 3, at 10^−4 M): d (10^−4) (Displacement of < 10% of specific binding at the indicated concentration (M).); Ki (human A3 receptors; Table 3): 15.3 ± 3.9 µM; rA1/hA3 (human A3 receptors; Table 3): >5
8 | CCOC(=O)C1=C(c2ccccc2)NC(C)=C(C(=O)SCCOC)C1CC (racemic) [Compound 63, 5-Ethyl 2-methyl-4-ethyl-6-phenyl-3-[(2-methoxy-(ethylsulfanylcarbonyl)]-1,4-(±)-dihydropyridine-5-carboxylate] |  |  |  |  |  | rA1 % inhibition (percentage of specific binding displaced) (A1 adenosine receptors; Table 3, at 10^−4 M): 36 ± 14%; Ki (A2A adenosine receptors; Table 3): 12.5 ± 2.5 µM; Ki (human A3 receptors; Table 3): 4.58 ± 0.35 µM; rA1/hA3 (human A3 receptors; Table 3): >10
9 | CCOC(=O)C1=C(C)NC(c2ccccc2)=C(C(=O)OCC)C1C=O (racemic) [Compound 67, 3,5-Diethyl 2-methyl-6-phenyl-4-formyl-1,4(±)-dihydropyridine-3,5-dicarboxylate] |  |  |  |  |  | inhibition at 100 µM (A1 adenosine receptors; Table 3, at 10^−4 M): 26 ± 6%; inhibition at 100 µM (A2A adenosine receptors; Table 3, at 10^−4 M): 32 ± 15%; Ki (human A3 receptors; Table 3): 15.6 ± 5.4 µM; rA1/hA3 (human A3 receptors; Table 3): >6
10 | CCOC(=O)c1c(C)nc(-c2ccccc2)c(C(=O)OCC)c1C(OC)OC [Compound 40, 3,5-Diethyl 2-methyl-4-(dimethoxymethyl)-6-phenylpyridine-3,5-dicarboxylate] | 2.88 ± 0.61 | 0.783 ± 0.154 | 2.5 |  | 1.95 ± 0.43 | 
11 | CCOC(=O)c1c(C)nc(C2CCC2)c(C(=O)OCc2ccccc2)c1C#Cc1ccccc1 [Compound 44, 3-Ethyl 5-benzyl 2-methyl-4-phenylethynyl-6-cyclobutylpyridine-3,5-dicarboxylate] | 27.6 ± 12 | 2.41 ± 0.59 |  |  |  | rA1 displacement of specific binding (class d) (A1 adenosine receptors; Table 2, at 10^−4 M): d (10^−4) (Displacement of <10% of specific binding at the indicated concentration (M).)
12 | CCOC(=O)c1c(-c2ccccc2)nc(C2CCC2)c(C(=O)SCC)c1CC [Compound 58, 5-Ethyl 2-cyclobutyl-4-ethyl-3-(ethylsulfanylcarbonyl)-6-phenylpyridine-5-carboxylate] |  | 0.145 ± 0.044 | >500 |  |  | rA1 percentage of specific binding displaced (A1 adenosine receptors; Table 2, at 10^−4 M): 30% (10^−4); rA2A percentage of specific binding displaced (A2A adenosine receptors; at 10^−4 M): 22% (10^−4)
13 | CCOC(=O)C1=C(C)NC(C2CCCC2)=C(C(=O)OCc2ccccc2)C1C#Cc1ccccc1 (racemic) [Compound 72, 3-Ethyl 5-benzyl 2-methyl-4-phenylethynyl-6-cyclopentyl-1,4(±)-dihydropyridine-3,5-dicarboxylate] |  |  |  |  |  | Ki (A1 adenosine receptors; Table 3): 17.1 ± 4.3 µM; Ki (A2A adenosine receptors; Table 3): 7.16 ± 1.56 µM; Ki (human A3 receptors; Table 3): 0.0505 µM; rA1/hA3 (human A3 receptors; Table 3): 340
14 | CCCC1C(C(=O)SCC)=C(C)NC(c2ccccc2)=C1C(=O)OCC (racemic) [Compound 64, 5-Ethyl 2-methyl-4-propyl-6-phenyl-3-(ethylsulfanylcarbonyl)-1,4-(±)-dihydropyridine-5-carboxylate] |  |  |  | 3.1 ± 0.78 |  | inhibition at 100 µM (A1 adenosine receptors; Table 3, at 10^−4 M): 48 ± 5%; inhibition at 100 µM (A2A adenosine receptors; Table 3, at 10^−4 M): 29 ± 10%
15 | CCOC(=O)c1c(C)nc(-c2ccccc2)c(C(=O)OCC)c1CC [Compound 35, 3,5-Diethyl 2-methyl-4-ethyl-6-phenylpyridine-3,5-dicarboxylate] | 3.69 ± 1.25 | 0.176 ± 0.038 | 19 |  | 3.36 ± 0.6 | 
16 | CCOC(=O)C1=C(c2ccccc2)NC(C)=C(C(=O)SCC)C1CC (racemic) [Compound 62, 5-Ethel 2-methyl-4ethyl-6-phenyl-3-(ethylsulfanylcarbonyl)-1,4-(±)-dihydropyridine-5-carboxylate] |  |  |  | 4.6 ± 0.38 |  | Ki (A1 adenosine receptors; Table 3): 35.4 ± 4.5 µM; Ki (A2A adenosine receptors; Table 3): 54.8 ± 18.8 µM
17 | CCOC(=O)c1c(C)nc(-c2ccccc2)c(C(=O)OCc2ccccc2)c1C#Cc1ccccc1 [Compound 43] |  | 2.75 ± 0.78 | 4.2 |  | 11.6 ± 4.8 | rA2A percentage of specific binding displaced (A2A adenosine receptors; at 10^−4 M): 43 ± 20% (10^−4)
18 | CCOC(=O)c1c(CC)nc(-c2ccccc2)c(C(=O)OCC)c1C [Compound 46, 3,5-Diethyl 2-ethyl-4-methyl-6-phenylpyridine-3,5-dicarboxylate] | 13.4 ± 4.2 | 0.121 ± 0.008 | 85 |  | 10.3 ± 1.7 | 
